US20240254118A1, “PRMT5 INHIBITORS AND USES THEREOF” (Gilead Sciences, Inc., priority 2022, published 2024)

Key:
[1] = system: SDMA signal (PRMT5 inhibition) in HCT116 MTAP-deleted cells; test: Symmetric di-methyl arginine image-based high content screen assay (SDMA assay), HCT116 MTAP-deleted; type: cell-based; conditions: SDMA assay; for EC50: Homo sapiens, HCT-116, 72 h, 3 days of treatment, cell line not given, taken as HCT116 MTAP-deleted, read-out: EC50 (SDMA assay)
Outline: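 Read-out: per-cell mean SDMA immunofluorescence (Alexa Fluor 488 secondary), cells segmented by DAPI on a high-content imager. Compound exposure in HCT116 MTAP-deleted cells lasted until fixation on Day 3; overnight 4° C primary anti-SDMA antibody staining.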

[2] = system: HCT116 MTAP-deleted cells; test: Cell viability assay (CellTiter-Glo, 7 days), HCT116 MTAP-deleted; conditions: Homo sapiens, HCT-116, 168 h
[3] = taken as HCT116 WT versus MTAP-deleted
[4] = taken as HCT116 WT vs MTAP-deleted

Row | SMILES | EC50 [1] [nM] | EC50 selectivity (SDMA assay) [1, 3] | CC50 [2] [nM] | EC50 selectivity (SDMA assay) [1, 4]
1 | CCN(C(C)=O)N(Cc1ccc(C(F)(F)F)cn1)C(=O)c1cc2c(cc1F)nc(N)c1cnn(C)c12 [Example 205, N′-acetyl-4-amino-N′-ethyl-7-fluoro-1-methyl-N-[[5-(trifluoromethyl)-2-pyridyl]methyl]pyrazolo[4,3-c]quinoline-8-carbohydrazide] | < 1 | 44 | < 100 | 
2 | CN(Cc1ccccn1)N(Cc1ccc(C(F)(F)F)cn1)C(=O)c1cc2c(cc1F)nc(N)c1cnn(C)c12 [Example 449, 4-amino-7-fluoro-N′,1-dimethyl-N′-(pyridin-2-ylmethyl)-N-((5-(trifluoromethyl)pyridin-2-yl)methyl)-1H-pyrazolo[4,3-c]quinoline-8-carbohydrazide] | 1 to 5 |  | < 100 | 62
3 | CN1CCN(N(Cc2ccc(C(F)(F)F)cn2)C(=O)c2cc3c(cc2F)nc(N)c2cnn(C)c23)C(=O)C1 [Example 383, 4-amino-7-fluoro-1-methyl-N-(4-methyl-2-oxo-piperazin-1-yl)-N-[[5-(trifluoromethyl)-2-pyridyl]methyl]pyrazolo[4,3-c]quinoline-8-carboxamide] | 1 to 5 | 168 | < 100 | 
4 | CCN(C)N(Cc1ccc(C(F)(F)F)cn1)C(=O)c1cc2c(cc1F)nc(N)c1cnn(C)c12 [Example 456, 4-amino-N′-ethyl-7-fluoro-N′,1-dimethyl-N-((5-(trifluoromethyl)pyridin-2-yl)methyl)-1H-pyrazolo[4,3-c]quinoline-8-carbohydrazide] | < 1 |  | < 100 | 25
5 | Cn1ncc2c(N)nc3ccc(C(=O)N(Cc4ccc(C(F)(F)F)cn4)N4Cc5ccccc5C4=O)cc3c21 [Example 35, 4-amino-1-methyl-N-(1-oxoisoindolin-2-yl)-N-[[5-(trifluoromethyl)-2-pyridyl]methyl]pyrazolo[4,3-c]quinoline-8-carboxamide] | < 1 | 103 | < 100 | 
6 | Cn1ncc2c(N)nc3ccc(C(=O)N(Cc4nc5cc(Cl)ccc5n4C)N4CCCCC4=O)cc3c21 [Example 211, 4-amino-N-((5-chloro-1-methyl-1H-benzo[d]imidazol-2-yl)methyl)-1-methyl-N-(2-oxopiperidin-1-yl)-1H-pyrazolo[4,3-c]quinoline-8-carboxamide] | < 1 | 142 | < 100 | 
7 | Cn1ncc2c(N)nc3ccc(C(=O)N(Cc4ccc(C(F)(F)F)cn4)N4CC(F)(F)C4)cc3c21 [Example 359, 4-amino-N-(3,3-difluoroazetidin-1-yl)-1-methyl-N-((5-(trifluoromethyl)pyridin-2-yl)methyl)-1H-pyrazolo[4,3-c]quinoline-8-carboxamide] | < 1 | 320 | < 100 | 
8 | CC(=O)NN(Cc1nc2cc(C(F)(F)F)ccc2s1)C(=O)c1cc2c(cc1F)nc(N)c1cnn(C)c12 [Example 216, N′-acetyl-4-amino-7-fluoro-1-methyl-N-[[5-(trifluoromethyl)-1,3-benzothiazol-2-yl]methyl]pyrazolo[4,3-c]quinoline-8-carbohydrazide] | < 1 | 54 | < 100 | 
9 | CC(=O)N(C)N(Cc1ccc(-c2cnn(C3CC3)c2)cc1F)C(=O)c1ccc2nc(N)c3cnn(C)c3c2c1 [Example 236, N′-acetyl-4-amino-N-(4-(1-cyclopropyl-1H-pyrazol-4-yl)-2-fluorobenzyl)-N′,1-dimethyl-1H-pyrazolo[4,3-c]quinoline-8-carbohydrazide] | < 1 | 203 | < 100 | 
10 | CCC(=O)N(C)N(Cc1ncc(C(F)(F)F)cc1Cl)C(=O)c1ccc2nc(N)c3cnn(C)c3c2c1 [Example 454, 4-amino-N-((3-chloro-5-(trifluoromethyl)pyridin-2-yl)methyl)-N′,1-dimethyl-N′-propionyl-1H-pyrazolo[4,3-c]quinoline-8-carbohydrazide] | 1 to 5 |  | < 100 | 421
11 | CN(C(=O)C1CC1)N(Cc1ccc(C(F)(F)F)cc1F)C(=O)c1ccc2nc(N)c3cnn(C)c3c2c1 [Example 344, 4-amino-N′-(cyclopropanecarbonyl)-N-(2-fluoro-4-(trifluoromethyl)benzyl)-N′,1-dimethyl-1H-pyrazolo[4,3-c]quinoline-8-carbohydrazide] | < 1 | 48 | < 100 | 
12 | Cn1ncc2c(N)nc3ccc(C(=O)N(Cc4ccc(C(C)(C)O)nc4)N4CCCCC4=O)cc3c21 [Example 66, 4-amino-N-[[6-(1-hydroxy-1-methyl-ethyl)-3-pyridyl]methyl]-1-methyl-N-(2-oxo-1-piperidyl)pyrazolo[4,3-c]quinoline-8-carboxamide] | > 5 | 281 | 100 to 1000 | 
13 | CN(c1ncccn1)N(Cc1ccc(C(F)(F)F)cn1)C(=O)c1ccc2nc(N)c3ccccc3c2c1 [Example 24, 6-amino-N′-methyl-N′-(pyrimidin-2-yl)-N-((5-(trifluoromethyl)pyridin-2-yl)methyl)phenanthridine-2-carbohydrazide] | < 1 | 87 | < 100 | 
14 | CN(C(=O)C12CC(CO1)C2)N(Cc1ccc(C(F)(F)F)cn1)C(=O)c1ccc2nc(N)c3cnn(C)c3c2c1 [Example 185, 4-amino-N′,1-dimethyl-N′-(2-oxabicyclo[2.1.1]hexane-1-carbonyl)-N-[[5-(trifluoromethyl)-2-pyridyl]methyl]pyrazolo[4,3-c]quinoline-8-carbohydrazide] | < 1 | 33 | < 100 | 
15 | Cn1ncc2c(N)nc3ccc(C(=O)N(Cc4nc5cc(Cl)ccc5s4)N4CCCCC4=O)cc3c21 [Example 93, 4-amino-N-[(5-chloro-1,3-benzothiazol-2-yl)methyl]-1-methyl-N-(2-oxo-1-piperidyl)pyrazolo[4,3-c]quinoline-8-carboxamide] | < 1 | 226 | < 100 | 
16 | Cn1ncc2c(N)nc3ccc(C(=O)N(Cc4nc(C(F)(F)F)cs4)N4CCCOC4=O)cc3c21 [Example 135, 4-amino-1-methyl-N-(2-oxo-1,3-oxazinan-3-yl)-N-((4-(trifluoromethyl)thiazol-2-yl)methyl)-1H-pyrazolo[4,3-c]quinoline-8-carboxamide] | 1 to 5 | 495 | 100 to 1000 | 
17 | CC(=O)N(c1ccccn1)N(Cc1ccc(C(F)(F)F)cn1)C(=O)c1ccc2nc(N)c3cnn(C)c3c2c1 [Example 147, N′-acetyl-4-amino-1-methyl-N′-(2-pyridyl)-N-[[5-(trifluoromethyl)-2-pyridyl]methyl]pyrazolo[4,3-c]quinoline-8-carbohydrazide] | < 1 | 16 | < 100 | 
18 | CN1CCN(N(Cc2ccc(C(F)(F)F)cn2)C(=O)c2cc3c(cc2F)nc(N)c2cnn(C)c23)CC1 [Example 59, 4-amino-7-fluoro-1-methyl-N-(4-methylpiperazin-1-yl)-N-((5-(trifluoromethyl)pyridin-2-yl)methyl)-1H-pyrazolo[4,3-c]quinoline-8-carboxamide] | < 1 | 53 | < 100 | 
19 | CC(=O)N(C)N(Cc1ccc(-c2ccns2)cc1F)C(=O)c1ccc2nc(N)c3cnn(C)c3c2c1 [Example 234, N′-acetyl-4-amino-N-(2-fluoro-4-(isothiazol-5-yl)benzyl)-N′,1-dimethyl-1H-pyrazolo[4,3-c]quinoline-8-carbohydrazide] | < 1 | 39 | < 100 | 
20 | Cn1ncc2c(N)nc3cc(F)c(C(=O)N(Cc4ccc(C(F)(F)F)cn4)N4C[C@@H]5C[C@H]4CO5)cc3c21 [Example 298, 4-amino-N-((1S,4S)-2-oxa-5-azabicyclo[2.2.1]heptan-5-yl)-7-fluoro-1-methyl-N-((5-(trifluoromethyl)pyridin-2-yl)methyl)-1H-pyrazolo[4,3-c]quinoline-8-carboxamide] | < 1 | 23 | < 100 | 
21 | Cn1ncc2c(N)nc3ccc(C(=O)N(Cc4ccc(C(F)(F)F)cn4)N4CC5(COC5)OC4=O)cc3c21 [Example 191, 4-amino-1-methyl-N-(6-oxo-2,5-dioxa-7-azaspiro[3.4]octan-7-yl)-N-[[5-(trifluoromethyl)-2-pyridyl]methyl]pyrazolo[4,3-c]quinoline-8-carboxamide] | > 5 | 103 | 100 to 1000 | 
22 | CN(C(=O)C(C)(F)F)N(Cc1ccc(C(F)(F)F)cn1)C(=O)c1ccc2nc(N)c3cnn(C)c3c2c1 [Example 189, 4-amino-N′-(2,2-difluoropropanoyl)-N′,1-dimethyl-N-[[5-(trifluoromethyl)-2-pyridyl]methyl]pyrazolo[4,3-c]quinoline-8-carbohydrazide] | < 1 | 13 | < 100 | 
23 | CC(=O)N(C)N(Cc1cnc(-c2ccccc2)n1C)C(=O)c1cc2c(cc1F)nc(N)c1cnn(C)c12 [Example 421, N′-acetyl-4-amino-7-fluoro-N′,1-dimethyl-N-((1-methyl-2-phenyl-1H-imidazol-5-yl)methyl)-1H-pyrazolo[4,3-c]quinoline-8-carbohydrazide] | 1 to 5 |  | < 100 | 73
